Reference: US12590088B2, “Jak inhibitor compound and pharmaceutical composition including the same” (KOREA PHARMA CO., LTD., priority 2019, dated 2026)
Each block holds one molecule with its values, some of them ahead of it.

Assays:
JAK3 [1] = molecular target: T1, JAK3 (Homo sapiens, UniProt P52333); assay: Cell-based assay on Janus kinase inhibitors, JAK3 (GI50)
T1 sequence (P52333 1-1124): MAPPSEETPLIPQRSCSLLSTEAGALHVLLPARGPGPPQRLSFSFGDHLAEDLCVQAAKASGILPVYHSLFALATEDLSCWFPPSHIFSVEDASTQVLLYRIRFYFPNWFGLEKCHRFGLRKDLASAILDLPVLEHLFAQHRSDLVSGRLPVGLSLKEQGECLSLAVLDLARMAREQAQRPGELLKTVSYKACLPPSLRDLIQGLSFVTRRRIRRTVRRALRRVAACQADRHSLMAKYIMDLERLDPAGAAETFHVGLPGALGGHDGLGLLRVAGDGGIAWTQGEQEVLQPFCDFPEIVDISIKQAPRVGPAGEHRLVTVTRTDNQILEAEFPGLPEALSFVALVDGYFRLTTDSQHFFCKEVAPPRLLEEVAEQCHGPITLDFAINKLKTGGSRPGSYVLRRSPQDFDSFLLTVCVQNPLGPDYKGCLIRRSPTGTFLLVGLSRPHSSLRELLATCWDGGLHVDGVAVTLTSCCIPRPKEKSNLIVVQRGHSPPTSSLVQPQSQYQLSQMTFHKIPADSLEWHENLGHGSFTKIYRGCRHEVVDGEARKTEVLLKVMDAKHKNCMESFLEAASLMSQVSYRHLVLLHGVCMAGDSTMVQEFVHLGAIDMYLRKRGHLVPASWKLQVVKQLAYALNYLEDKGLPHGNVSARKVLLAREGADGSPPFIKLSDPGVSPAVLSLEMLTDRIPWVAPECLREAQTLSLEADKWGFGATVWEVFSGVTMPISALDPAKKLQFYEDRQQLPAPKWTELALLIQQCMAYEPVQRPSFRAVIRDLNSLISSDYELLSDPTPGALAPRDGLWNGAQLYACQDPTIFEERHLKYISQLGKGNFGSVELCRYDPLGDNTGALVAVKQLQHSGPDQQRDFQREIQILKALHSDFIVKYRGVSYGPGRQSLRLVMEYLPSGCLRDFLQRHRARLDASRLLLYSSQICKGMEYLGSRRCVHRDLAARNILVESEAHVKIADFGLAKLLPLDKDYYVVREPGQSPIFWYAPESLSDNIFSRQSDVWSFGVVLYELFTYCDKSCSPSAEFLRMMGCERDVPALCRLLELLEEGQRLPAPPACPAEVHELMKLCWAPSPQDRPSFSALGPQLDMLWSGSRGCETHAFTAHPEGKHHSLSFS

JAK1 = JAK1 (Homo sapiens, UniProt P23458); assay: JAK1 IC50 measurement; type: biochemical
JAK2 = JAK2 (Homo sapiens, UniProt O60674); assay: JAK2 IC50 measurement; type: biochemical
JAK3 [2] = molecular target: T1, JAK3; assay: JAK3 IC50 measurement; type: biochemical
TYK2 = TYK2 (Homo sapiens, UniProt P29597); assay: TYK2 IC50 measurement; type: biochemical
TYK2, sequence (P29597 whole entry): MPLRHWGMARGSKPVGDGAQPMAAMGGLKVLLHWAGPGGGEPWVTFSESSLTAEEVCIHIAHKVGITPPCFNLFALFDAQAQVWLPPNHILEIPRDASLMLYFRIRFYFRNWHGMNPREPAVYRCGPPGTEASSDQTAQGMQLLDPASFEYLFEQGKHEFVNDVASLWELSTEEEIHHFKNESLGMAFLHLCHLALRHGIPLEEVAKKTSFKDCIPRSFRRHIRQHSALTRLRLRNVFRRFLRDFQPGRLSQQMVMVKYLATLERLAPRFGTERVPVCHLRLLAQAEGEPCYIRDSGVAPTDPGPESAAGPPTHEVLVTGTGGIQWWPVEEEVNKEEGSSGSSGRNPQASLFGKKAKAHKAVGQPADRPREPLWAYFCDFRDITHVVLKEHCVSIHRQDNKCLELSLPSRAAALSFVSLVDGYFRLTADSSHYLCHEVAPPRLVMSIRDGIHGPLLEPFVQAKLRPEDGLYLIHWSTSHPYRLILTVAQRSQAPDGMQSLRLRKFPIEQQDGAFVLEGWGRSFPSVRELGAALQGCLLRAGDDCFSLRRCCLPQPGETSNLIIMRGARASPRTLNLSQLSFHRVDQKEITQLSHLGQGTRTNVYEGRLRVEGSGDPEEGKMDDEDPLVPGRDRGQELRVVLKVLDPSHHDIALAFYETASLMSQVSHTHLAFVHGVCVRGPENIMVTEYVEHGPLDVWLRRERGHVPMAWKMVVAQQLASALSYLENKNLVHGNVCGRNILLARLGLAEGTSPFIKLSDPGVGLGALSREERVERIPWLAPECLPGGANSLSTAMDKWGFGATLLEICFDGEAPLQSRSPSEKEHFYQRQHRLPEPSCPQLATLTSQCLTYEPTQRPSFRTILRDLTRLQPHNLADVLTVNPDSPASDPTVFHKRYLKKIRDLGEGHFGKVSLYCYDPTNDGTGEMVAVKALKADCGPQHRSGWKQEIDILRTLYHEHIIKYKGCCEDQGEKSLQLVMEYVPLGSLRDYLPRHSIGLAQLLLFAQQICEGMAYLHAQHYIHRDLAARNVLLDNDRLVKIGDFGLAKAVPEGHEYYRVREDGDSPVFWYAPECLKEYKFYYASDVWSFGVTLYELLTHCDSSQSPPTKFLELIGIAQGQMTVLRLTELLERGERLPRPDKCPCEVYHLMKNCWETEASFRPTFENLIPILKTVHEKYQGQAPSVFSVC

JAK2, sequence (O60674 whole entry): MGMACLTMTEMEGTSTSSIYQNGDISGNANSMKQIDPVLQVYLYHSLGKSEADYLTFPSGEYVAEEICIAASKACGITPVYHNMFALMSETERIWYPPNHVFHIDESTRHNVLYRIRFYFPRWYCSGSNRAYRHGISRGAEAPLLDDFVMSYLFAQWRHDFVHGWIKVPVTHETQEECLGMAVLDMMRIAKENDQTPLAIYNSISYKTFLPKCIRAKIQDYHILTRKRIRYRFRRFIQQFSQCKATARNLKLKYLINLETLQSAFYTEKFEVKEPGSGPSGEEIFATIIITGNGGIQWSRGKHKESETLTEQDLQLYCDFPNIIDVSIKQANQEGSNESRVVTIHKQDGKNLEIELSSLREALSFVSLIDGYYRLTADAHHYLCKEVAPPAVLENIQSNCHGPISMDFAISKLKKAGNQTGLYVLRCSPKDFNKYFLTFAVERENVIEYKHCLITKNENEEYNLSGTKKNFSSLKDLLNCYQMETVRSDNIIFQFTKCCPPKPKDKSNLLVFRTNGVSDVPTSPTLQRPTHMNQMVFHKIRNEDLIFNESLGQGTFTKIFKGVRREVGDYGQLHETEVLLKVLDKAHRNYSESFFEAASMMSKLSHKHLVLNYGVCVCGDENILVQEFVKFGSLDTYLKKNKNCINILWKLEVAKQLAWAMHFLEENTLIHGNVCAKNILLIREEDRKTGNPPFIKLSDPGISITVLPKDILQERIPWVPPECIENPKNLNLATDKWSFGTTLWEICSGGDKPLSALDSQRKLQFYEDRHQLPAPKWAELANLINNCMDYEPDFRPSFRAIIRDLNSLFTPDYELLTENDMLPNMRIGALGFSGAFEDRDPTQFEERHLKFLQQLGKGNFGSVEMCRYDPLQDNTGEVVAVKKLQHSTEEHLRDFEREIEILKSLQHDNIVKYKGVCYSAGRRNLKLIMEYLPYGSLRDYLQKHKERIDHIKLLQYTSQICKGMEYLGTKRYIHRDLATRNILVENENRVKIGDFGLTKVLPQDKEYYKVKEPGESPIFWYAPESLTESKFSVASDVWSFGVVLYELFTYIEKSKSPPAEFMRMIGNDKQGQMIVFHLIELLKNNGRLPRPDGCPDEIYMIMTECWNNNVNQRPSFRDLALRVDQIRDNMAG
JAK1, sequence (P23458 whole entry): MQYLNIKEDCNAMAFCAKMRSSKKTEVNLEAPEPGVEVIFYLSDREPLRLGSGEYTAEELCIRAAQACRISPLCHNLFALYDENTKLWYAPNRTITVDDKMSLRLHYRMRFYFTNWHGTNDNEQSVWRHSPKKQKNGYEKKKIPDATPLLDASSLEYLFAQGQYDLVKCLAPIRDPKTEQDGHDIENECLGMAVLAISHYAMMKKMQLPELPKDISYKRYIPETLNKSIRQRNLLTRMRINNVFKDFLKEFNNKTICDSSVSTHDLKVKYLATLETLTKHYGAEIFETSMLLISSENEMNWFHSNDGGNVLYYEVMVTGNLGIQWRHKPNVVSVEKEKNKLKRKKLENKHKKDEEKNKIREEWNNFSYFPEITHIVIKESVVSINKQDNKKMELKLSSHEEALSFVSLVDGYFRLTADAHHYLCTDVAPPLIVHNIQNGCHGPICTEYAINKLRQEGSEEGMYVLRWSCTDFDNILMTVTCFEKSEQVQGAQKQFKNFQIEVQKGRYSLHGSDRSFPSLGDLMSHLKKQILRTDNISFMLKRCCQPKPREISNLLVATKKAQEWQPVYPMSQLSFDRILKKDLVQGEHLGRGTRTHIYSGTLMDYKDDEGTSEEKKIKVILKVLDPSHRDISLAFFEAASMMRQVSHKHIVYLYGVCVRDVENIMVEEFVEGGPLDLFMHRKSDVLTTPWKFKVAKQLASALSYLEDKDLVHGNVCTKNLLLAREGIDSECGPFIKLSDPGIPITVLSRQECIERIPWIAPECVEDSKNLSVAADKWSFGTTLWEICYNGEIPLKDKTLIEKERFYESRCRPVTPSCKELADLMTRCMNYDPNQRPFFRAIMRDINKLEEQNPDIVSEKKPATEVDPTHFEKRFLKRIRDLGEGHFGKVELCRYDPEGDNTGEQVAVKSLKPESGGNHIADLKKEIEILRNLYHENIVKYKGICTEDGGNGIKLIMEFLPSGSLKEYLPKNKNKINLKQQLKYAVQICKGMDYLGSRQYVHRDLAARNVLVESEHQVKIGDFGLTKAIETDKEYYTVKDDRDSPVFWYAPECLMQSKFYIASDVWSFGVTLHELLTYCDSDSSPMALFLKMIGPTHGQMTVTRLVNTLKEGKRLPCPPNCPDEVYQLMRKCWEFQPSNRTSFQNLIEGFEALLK

Compound: CNC(=O)c1cnc2[nH]ccc2c1N[C@@H]1CCN(Cc2cccc(Cl)c2)[C@@H](C)C1 (relative stereo) [Compound 20b, 4-((trans-1-(3-Chlorobenzyl)-2-methylpiperidin-4-yl)amino)-N-methyl-11H-pyrrolo[2,3-b]pyridine-5-carboxamide]
GI50 (JAK3 [1]): 8.24 µM

Compound: CNC(=O)c1cnc2[nH]ccc2c1NC1CC2CCC(C1)N2Cc1cccc(C#N)c1 (stereo not drawn) [Compound 17f, 4-((8-(3-Cyanobenzyl)-8-azabicyclo[3.2.1]octan-3-yl)amino)-N-methyl-1H-pyrrolo[2,3-b]pyridine-5-carboxamide]
IC50 (JAK2): 0.0588 µM | IC50 (JAK3 [2]): 0.0447 µM | IC50 (TYK2): 0.0922 µM

Compound: CNC(=O)c1cnc2[nH]ccc2c1N[C@H]1CCCN(Cc2cccc(Cl)c2)C1 [Compound 18a, (S)-4-((1-(3-Chlorobenzyl)piperidin-3-yl)amino)-N-methyl-1H-pyrrolo[2,3-b]pyridine-5-carboxamide]
IC50 (JAK1): 1.87 µM

Other lines, results leading:

IC50 (JAK1): 0.13 µM
Compound: CNC(=O)c1cnc2[nH]ccc2c1NC1CC(NCc2ccccc2)C1 (stereo not drawn) [Compound 16a, 4-((3-(Benzylamino)cyclobutyl)amino)-N-methyl-1H-pyrrolo[2,3-b]pyridine-5-carboxamide]

IC50 (JAK1): 0.016 µM
Compound: CNC(=O)c1cnc2[nH]ccc2c1NC1CC(NCc2cccc(Cl)c2)C1 (stereo not drawn) [Compound 16b, 4-((3-((3-Chlorobenzyl)amino)cyclobutyl)amino)-N-methyl-1H-pyrrolo[2,3-b]pyridine-5-carboxamide]

IC50 (JAK1): 0.0138 µM
Compound: CNC(=O)c1cnc2[nH]ccc2c1NC1CC(NCc2ccc(Cl)cc2)C1 (stereo not drawn) [Compound 16c, 4-((3-((4-Chlorobenzyl)amino)cyclobutyl)amino)-N-methyl-1H-pyrrolo[2,3-b]pyridine-5-carboxamide]

IC50 (JAK1): 0.697 µM | IC50 (JAK2): 0.533 µM | Selectivity for JAK1 JAK2/JAK1 (JAK2): 0.764 | IC50 (JAK3 [2]): 3.43 µM | Selectivity for JAK1 JAK3/JAK1 (JAK3 [2]; ratio of IC50 values): 4.92 | IC50 (TYK2): 1.79 µM | Selectivity for JAK1 TYK2/JAK1 (TYK2): 2.56
Compound: CNC(=O)c1cnc2[nH]ccc2c1N[C@H]1CCCN(Cc2cccc(OC)c2)C1 [Compound 18b, (S)-4-((1-(3-Methoxybenzyl)piperidin-3-yl)amino)-N-methyl-1H-pyrrolo[2,3-b]pyridine-5-carboxamide]
